Results: patent publication US11419870B2, “Intermittent dosing of MDM2 inhibitor” (Novartis AG, priority 2014, dated 2022)
Where “and” joins values, the source holds several entries; their conditions need not be identical. Identical values can stand only once.

Key:
SJSA-1 tumor [1] = assay: Efficacy on SJSA-1 tumor-bearing nude rat (tumor volume); assay type: in vivo; conditions: for tumor regression in average: one week post treatment
BBC3 (puma) = assay: Pharmacodynamic qRT-PCR: Puma mRNA induction in SJSA-1 tumor; assay type: in vivo, Human
Source text: At the times indicated, animals were anaesthetized by exposure to 2-3% v/v isofluorane in medical oxygen: • Either the animal was killed without recovering from anesthetic after blood sampling. Blood was collected into commercially prepared EDTA coated tubes (Milian, cat #TOM-14C) in order to extract plasma. The tissues were excised, weighed and rapidly frozen in liquid nitrogen. • Or a tumor biopsy was collected by using a biopsy gun and flushing the needle with RLT buffer in Barney rubble tubes (Covaris, cat #520048). In addition, 20 μl of blood may have been collected from the tail vein and diluted in 20 μl of water. After recovery of anesthesia, animals were transferred in their respective cages.
Frozen tissues were cryogenic dry pulverized and biopsies were sonicated using the CryoPrep™ system (model CP-02) from Covaris. More specifically, frozen tissues were transferred to disposable tubes called TissueTubes™, placed in the CryoPrep™ system and then pulverized using the appropriate impact setting. The resulting powder was collected with a spatula and weighed for further processing (mRNA purification or quantification of compound in tissues). The biopsies were flushed in a Barney rubble glass tubes with 350 μl of RLT buffer and placed in the Covaris for sonication (1 min per biopsy). The resulting lysate was transferred into a QIAshredder (79654, Qiagen) column for RNA extraction.
Total RNA was purified from cell pellets using the QIAshredder (79654, Qiagen) and RNeasy Mini Kit (74106, Qiagen) according to the manufacturer's instructions, with the exception that no DNA digestion was performed. Total RNA was eluted with 50 μL of RNase-free water. Total RNA was quantitated using the spectrophotometer ND-1000 Nanodrop®. The qRT-PCR (Quantitative Reverse Transcriptase Polymerase Chain Reaction) was set up in triplicate per sample using the One-Step RT qPCR Master Mix Plus (RT-QPRT-032X, Eurogentec), with either control primers and primers for the target, namely TaqMan Gene Expression assays (20× probe dye FAM™ (or VIC)-TAMRA (or MGB); Applied Biosystems) listed in Table 1.

[2] = Tolerability in SJSA-1 tumor-bearing nude rat (body weight, survival); assay type: in vivo
Description: Subcutaneous tumors were induced by concentrating 1.0×10^7 SJSA-1 cells in 50% Matrigel® and injecting in the right flank of Harlan nude rats.
[formula] Similarly, the body-weight (BW) of the animal was measured three times per week allowing calculation at any particular time-point relative to the day of initiation of treatment (day 0) of the percentage change in BW (Δ % BW).

SJSA-1 tumor [3] = assay: Efficacy on SJSA-1 tumor-bearing nude rat (tumor volume); assay type: in vivo
Description: Subcutaneous tumors were induced by concentrating 1.0×10^7 SJSA-1 cells in 50% Matrigel® and injecting in the right flank of Harlan nude rats. Efficacy experiment could start 14 days post cell injection. […] The animals were treated either at a high dose (20 mg/kg i.v. or 27 mg/kg p.o.) once every 3 weeks (q3w) or at a high dose (15 mg/kg p.o.) followed 24 h later by a daily low dose treatment (3 mg/kg p.o., 2 weeks on/2 weeks off).
The tumor volume (TVol) and body-weight (BW) of the animal were measured three times per week allowing calculation at any particular time-point relative to the day of initiation of treatment (day 0) of the percentage change in TVol (Δ% TVol). Tumor response was quantified by the change in tumor volume (endpoint minus starting value in mm^3) as the T/C i.e.
[formula] In the case of a tumor regression or to assess the percentage of change in TVol, the tumor response was quantified by the percentage of regression of the starting TVol, ie

[4] = i.v. q3w 13.7 mg/kg, week 1 post treatment
[5] = i.v. q3w 13.7 mg/kg, week 2 post treatment
[6] = i.v. q3w 18.2 mg/kg, week 1 post treatment
[7] = i.v. q3w 18.2 mg/kg, week 2 post treatment
[8] = i.v. q3w 18.2 mg/kg, week 3 post treatment
[9] = i.v. q3w 18.2 mg/kg, week 5 post treatment
[10] = i.v. q3w 18.2 mg/kg, week 6 post treatment
[11] = i.v. q3w 20 mg/kg, three weeks post first treatment

SMILES: COc1ncc(-c2nc3c(n2C(C)C)[C@H](c2ccc(Cl)cc2)N(c2cc(Cl)cn(C)c2=O)C3=O)c(OC)n1 [Compound A, (S)-5-(5-Chloro-1-methyl-2-oxo-1,2-dihydro-pyridin-3-yl)-6-(4-chloro-phenyl)-2-(2,4-dimethoxy-pyrimidin-5-yl)-1-isopropyl-5,6-dihydro-1H-pyrrolo[3,4-d]imidazol-4-one]
- tumor cell density (SJSA-1 tumor [1]; higher single dose, 48 and 72 h post-treatment): dramatic decrease
- tumor growth (SJSA-1 tumor [1]; i.v. 13.7 mg/kg, after two weeks): re-growing
- tumor regression in average (SJSA-1 tumor [1]; i.v. 13.7 mg/kg): 66%
- tumor regression in average (SJSA-1 tumor [1]; i.v. 18.2 mg/kg): 88%
- tumor regression (SJSA-1 tumor [1]; i.v. 18.2 mg/kg, three weeks post treatment): 36%
- CR (SJSA-1 tumor [1]; [4]): 1/6
- ΔTvol (%) (SJSA-1 tumor [1]; [4]): −66 ± 9%
- CR (SJSA-1 tumor [1]; [5]): 0/6
- ΔTvol (%) (SJSA-1 tumor [1]; [5]): 4 ± 37%
- CR (SJSA-1 tumor [1]; [6]): 0/5
- ΔTvol (%) (SJSA-1 tumor [1]; [6]): −80 ± 2%
- CR (SJSA-1 tumor [1]; [7]): 2/5
- ΔTvol (%) (SJSA-1 tumor [1]; [7]): −79 ± 11%
- CR (SJSA-1 tumor [1]; [8]): 2 and 2/5
- ΔTvol (%) (SJSA-1 tumor [1]; [8]): −36 ± 37%
- CR (SJSA-1 tumor [1]; [9]): 2/5
- ΔTvol (%) (SJSA-1 tumor [1]; [9]): 22 ± 63%
- CR (SJSA-1 tumor [1]; [10]): 2/5
- ΔTvol (%) (SJSA-1 tumor [1]; i.v. q3w 18.2 mg/kg, week 6 post treatment (after the second treatment)): 118% and 118 ± 104%
- rats with complete response (100% regression) (SJSA-1 tumor [1]; [11]): 3
- rats with progressive disease (SJSA-1 tumor [1]; [11]): 1
- rats with stable disease (SJSA-1 tumor [1]; [11]): 1
- effect of combining two dosing schedules (SJSA-1 tumor [1]; intermittent (15 mg/kg once) plus daily dosing (1.5 mg/kg)): highly synergistic effect
- tumor regression (SJSA-1 tumor [1]; p.o. q3w 20 mg/kg, three weeks post first treatment): 27%
- SJSA-1 tumor regression (SJSA-1 tumor [1]; p.o. q3w 27 mg/kg, after one cycle (three weeks post first treatment)): 88%
- response of regrown tumors to retreatment (SJSA-1 tumor [1]; retreated i.v. at 15 mg/kg): still sensitive
- tumors with incomplete response and regrowth (SJSA-1 tumor [1]; single i.v. 20 mg/kg): 2 of 11
- tumor regression (SJSA-1 tumor [1]; single i.v. 20 mg/kg, 14 days post treatment): 92%
- complete SJSA-1 tumor response (100% regression), share of treated rat (SJSA-1 tumor [1]; single i.v. 20 mg/kg, for 42 days): 82%
- Puma mRNA expression in tumor (BBC3 (puma); after first p.o. treatment, 20 and 27 mg/kg): dose-dependently increased
- Puma mRNA expression increase in tumor (BBC3 (puma); after first single i.v. treatment 20 mg/kg): more than 50 fold
- Puma mRNA expression induction (BBC3 (puma); below the high dose): 5-6 fold
- Puma mRNA induction Emax (BBC3 (puma); higher single dose, intravenously or per os): ≥ 70 fold induction
- Puma mRNA expression max (BBC3 (puma); single i.v. 20 mg/kg, 24 h post treatment, tumor): 180 fold
- Puma mRNA induction Emax (BBC3 (puma); single oral 27 mg/kg, 48 h post treatment, tumor): 162 fold
- ABW (%) [2, 4]: 2.7 ± 0.9%
- ABW (%) [2, 5]: 7.5 ± 1.0%
- ABW (%) [2, 6]: 2.5 ± 2.6%
- ABW (%) [2, 7]: 9.1 ± 1.9%
- ABW (%) [2, 8]: 11.9 ± 2.7%
- ABW (%) [2, 9]: 10.6 ± 2.3%
- ABW (%) [2, 10]: 5.9 ± 7.9%
- sacrifice because of excessive body weight (BW) loss ([2]; single i.v. 20 mg/kg, day 9 post treatment): One rat had to be sacrificed
- tumor regression (SJSA-1 tumor [3]; i.v. q3w 20 mg/kg, after the second treatment): 100%
- rats with partial response (more than 50% regression) (SJSA-1 tumor [3]; [11]): 2
- tumor regression on average (SJSA-1 tumor [3]; [11]): 6%
- SJSA-1 tumor regression (SJSA-1 tumor [3]; p.o. q3w 27 mg/kg, after two cycles (after the second treatment)): 27%
